Key:
[1] = cited from earlier work
[2] = tested on: patients with SBS; conditions: cited from earlier work
[3] = Population PK analysis of teduglutide; assay type: in vivo, human
[4] = single dose, non-Japanese adults; cited from earlier work
[5] = tested on: patients with SBS; assay: Time- and exposure-response analysis of prescribed PS; assay type: in vivo, human; conditions: for percent change from baseline of prescribed PS volume (maximum) / percent change from baseline of PS volume (maximum): 0.05 mg/kg
[6] = single and repeated doses up to 20 mg

Question: Which results are given for `CC[C@H](C)[C@H](NC(=O)[C@H](Cc1ccccc1)NC(=O)[C@H](CC(=O)O)NC(=O)[C@H](CCCNC(=N)N)NC(=O)[C@H](C)NC(=O)[C@H](C)NC(=O)[C@H](CC(C)C)NC(=O)[C@H](CC(N)=O)NC(=O)[C@H](CC(=O)O)NC(=O)[C@H](CC(C)C)NC(=O)[C@@H](NC(=O)[C@@H](NC(=O)[C@H](CC(N)=O)NC(=O)[C@H](CCSC)NC(=O)[C@H](CCC(=O)O)NC(=O)[C@H](CC(=O)O)NC(=O)[C@H](CO)NC(=O)[C@H](Cc1ccccc1)NC(=O)[C@H](CO)NC(=O)CNC(=O)[C@H](CC(=O)O)NC(=O)CNC(=O)[C@@H](N)Cc1c[nH]cn1)[C@@H](C)O)[C@@H](C)CC)C(=O)N[C@@H](CC(N)=O)C(=O)N[C@@H](Cc1c[nH]c2ccccc12)C(=O)N[C@@H](CC(C)C)C(=O)N[C@H](C(=O)N[C@@H](CCC(N)=O)C(=O)N[C@H](C(=O)N[C@@H](CCCCN)C(=O)N[C@H](C(=O)N[C@H](C(=O)N[C@@H](CC(=O)O)C(=O)O)[C@@H](C)O)[C@@H](C)CC)[C@@H](C)O)[C@@H](C)CC` [teduglutide]?
Answer: terminal elimination half-life [1]: ~ 2 h; time of maximum plasma levels after dosing ([1]; s.c. injection): 3 to 5 h; accumulation [1, 6]: no accumulation; rate and extent of absorption vs dose [1, 6]: dose‐proportional; incidence of adverse events leading to discontinuation of treatment ([2]; 0.05 mg/kg, adult patients with SBS, 24-week study): less than 5%; responder rate (≥20% reduction from baseline in the volume of PS) ([2]; daily s.c. 0.05 mg/kg, patients with SBS, vs. 30% placebo, p = 0.002): 63%; impact of race (Japanese vs. non-Japanese) on CL/F ([3]; covariate analysis): did not have an impact; impact of race (Japanese vs. non-Japanese) on K a ([3]; covariate analysis): did not have an impact; impact of race (Japanese vs. non-Japanese) on V/F ([3]; covariate analysis): did not have an impact; CL/F in female subjects, lower relative to male subjects ([3]; final PopPK model): 7%; V/F of typical subject of 0.38 years relative to typical subject of 34 years ([3]; final PopPK model): fourfold higher; absorption lag time ([3]; final PopPK model, corresponds to 0.299 h): 17.9 min; time of peak concentrations after dosing ([3]; observed individual concentrations, adult and pediatric patients with SBS, s.c.): 3 to 5 h; terminal elimination half-life (t 1/2), population estimate ([3]; patients with SBS, final PopPK model): 1.47 h; mean C max,ss in Japanese adult patients, higher than in non-Japanese adult patients ([3]; s.c. 0.05 mg/kg, SBS): 23%; mean C max,ss in Japanese pediatric patients, difference from non-Japanese pediatric patients ([3]; s.c. 0.05 mg/kg, SBS): ≤ 20%; time to total absorption after dosing ([3]; suggested by K a 0.330 h^−1 and lag time 17.9 min): ~10 h; AUCinf in individuals with ESRD vs healthy volunteers [4]: more than twofold higher; C max in individuals with ESRD vs healthy volunteers [4]: more than twofold higher; percent change from baseline of prescribed PS volume (maximum) ([5]; Japanese pediatric patients with SBS): −29.7%; percent change from baseline of PS volume (maximum) ([5]; adult Japanese patients with SBS): −62.6%; percent change from baseline of PS volume (maximum) ([5]; adult non-Japanese patients with SBS): −54.9%; percent change from baseline of prescribed PS volume (maximum) ([5]; non-Japanese pediatric patients with SBS): −74.7%; maximum reduction in PS ([5]; daily dosing of 0.05 mg/kg): 5.76 L/week; E max of teduglutide on prescribed PS volume ([5]; final time- and exposure-response model, change from baseline in prescribed PS volume): −5.76 L/week

Reference: article PMC8604237 (Clinical and Translational Science, 2021)
